Measurements reported in patent US11690860B2, “Treatment of HCV infected patients with cirrhosis” (Atea Pharmaceuticals, Inc., priority 2018, dated 2023).
Several values for one entry are separate records, joined by “and”; a condition that tells them apart may be missing. Equal entries are not always repeated. Entries after “also recorded” stand apart in the source; their conditions may differ. Structures can show the parent of a compound that is named as a salt.

Columns and labels:
Type in all cases: in vivo, human
[1] = Plasma pharmacokinetics of Compound 1 and metabolite 1-7 (LC-MS/MS) in Parts C, D and E; details: based on plasma exposures
Description: (§1) Doses were administered as the Compound 2 salt base. The free base Compound 1 equivalent is often given in parenthesis.
(§2) Part C was a randomized, double-blind, placebo-controlled MAD study divided into three cohorts. […] The dose escalation only proceeded following satisfactory review of the data.
(§3) HCV-infected patients were treatment-naïve with HCV RNA ≥5 log 10 IU/mL. HCV RNA was quantified using COBAS® AmpliPrep TaqMAN® v2.0 with LLQ of 15 IU/mL. Plasma drug levels were measured using LC-MS/MS. […] Cirrhosis was confirmed by prior liver biopsy or Fibroscan >12.5 kPa. […] Mean ages of enrolled subjects were 44, 39, and 56 years in the non-cirrhotic GT1b 600 mg dose cohort, non-cirrhotic GT3 cohort, and the cirrhotic cohort, respectively.
Plasma levels of metabolite 1-7 were measured using LC-MS/MS.

[2] = Safety/tolerability in the study of Compound 2
Description: as §1, §2
However, this observation is consistent with previously published data showing rapid increase in lipids with HCV clearance upon initiation of DAA therapy in HCV-infected subjects.

GT1b HCV [3] = assay: Part C: multiple ascending dose study, 7 days QD, HCV RNA change in non-cirrhotic GT1 HCV-infected patients; details: for Mean ± SD HCV RNA maximum change from baseline / Individual HCV RNA maximum change from baseline / Mean ± SD HCV RNA change from baseline to 24 h: NC GT1b; for Mean ± SD HCV RNA maximum change from baseline / Mean ± SD HCV RNA change from baseline to 24 h: N=6
Description: as §1, §2, §3

GT3 HCV = assay: Part D: 600 mg QD for 7 days, HCV RNA change in non-cirrhotic GT3 HCV-infected patients; details: for Individual HCV RNA maximum change from baseline / Mean ± SD HCV RNA maximum change from baseline / Mean ± SD HCV RNA change from baseline to 24 h: Part D; for Individual HCV RNA maximum change from baseline / Mean ± SD HCV RNA maximum change from baseline: NC GT3, 600 mg/day QD 7 days; for Mean ± SD HCV RNA maximum change from baseline / Mean ± SD HCV RNA change from baseline to 24 h: N=6; for Mean ± SD HCV RNA change from baseline to 24 h: NC GT3, 600 mg/day
Description: (§4) Doses were administered as the Compound 2 salt base. The free base Compound 1 equivalent is often given in parenthesis. […]
as §3

HCV GT1, GT2, GT3 = assay: All 600 mg QD cohorts (Parts C/D/E) taken together, plasma HCV RNA
Description: as §1, §2, §3

GT1b HCV [4] = assay: Part B: single ascending dose study, HCV RNA reduction in non-cirrhotic GT1b HCV-infected subjects
Description: as §3
Part A and Part B were previously conducted and described in WO 2018/144640. Part A and Part B were single ascending dose (SAD) studies.

GT1, GT2, or GT3 HCV = assay: Part E: 600 mg QD for 7 days, HCV RNA change in Child-Pugh A cirrhotic patients; details: for Mean Reduction After 24 hours: 600 mg; for Mean ± SD HCV RNA maximum change from baseline / Mean ± SD HCV RNA change from baseline to 24 h / Individual HCV RNA maximum change from baseline: Part E; for Mean ± SD HCV RNA maximum change from baseline: Child-Pugh A cirrhotic GT1/GT2/GT3, 600 mg/day QD 7 days; for Mean ± SD HCV RNA maximum change from baseline / Mean ± SD HCV RNA change from baseline to 24 h: N=6; for Mean ± SD HCV RNA change from baseline to 24 h: Child-Pugh A cirrhotic GT1/GT2/GT3, 600 mg/day
Description: as §4, §3

[5] = Part C, 600 mg/day QD 7 days, listed as Compd 2
[6] = GT1, Child-Pugh A, 600 mg QD 7 days, n=3
[7] = GT3, Child-Pugh A, 600 mg QD 7 days, n=1

## CNc1nc(N)nc2c1ncn2[C@@H]1O[C@H](CO[P@@](=O)(N[C@@H](C)C(=O)OC(C)C)Oc2ccccc2)[C@@H](O)[C@@]1(C)F [Compound 2, hemi-sulfate salt of isopropyl((S)-(((2R,3R,4R,5R)-5-(2-amino-6-(methylamino)-9H-purin-9-yl)-4-fluoro-3-hydroxy-4-methyltetrahydrofuran-2-yl)methoxy)(phenoxy)phosphoryl)-L-alaninate]
[1]
  impact of mild hepatic impairment on PK: did not significantly impact
[2]; cirrhotic and non-cirrhotic HCV-infected subjects, up to 600 mg
  serious adverse events, dose-limiting toxicities, premature discontinuations: No serious adverse events (AEs), dose-limiting toxicities, or premature discontinuations were reported; also recorded: No serious adverse events, dose-limiting toxicities or premature discontinuations were observed
[2]; compared to placebo
  lipid abnormalities (cholesterol and triglyceride increase): higher incidence of mostly low-grade lipid abnormalities
[2]; during the treatment period
  ALT/AST values: decreased over time
[2]; in vivo
  AEs, laboratory parameters, ECGs and vital signs: no other clinically relevant, dose-related patterns
  liver injury: no findings suggestive of liver injury
[2]; up to 600 mg (salt form) for seven days
  tolerability: well tolerated
GT1b HCV [3]; GT1 non-cirrhotic, 600 mg QD 7 days, n=6
  HCV RNA < LOQ (15 IU/mL), subjects: 3/6
GT1b HCV [3]; Part C, 600 mg QD 7 days
  subjects achieving HCV RNA <LOQ: 50%
GT1b HCV [3]; Part C, 150 mg/day QD 7 days
  Mean ± SD HCV RNA maximum change from baseline: 2.6 ± 1.1 log10 IU/mL
GT1b HCV [3]; Part C, 150 mg/day QD 7 days, listed as Compd 2
  Individual HCV RNA maximum change from baseline: 1.7 log10 IU/mL and 1.8 log10 IU/mL (2×) and 2.7 log10 IU/mL and 3.0 log10 IU/mL and 4.5 log10 IU/mL
GT1b HCV [3]; Part C, 150 mg/day
  Mean ± SD HCV RNA change from baseline to 24 h: 1.2 ± 0.3 log10 IU/mL
GT1b HCV [3]; Part C, 300 mg/day QD 7 days
  Mean ± SD HCV RNA maximum change from baseline: 4.0 ± 0.4 log10 IU/mL
GT1b HCV [3]; Part C, 300 mg/day QD 7 days, listed as Compd 2
  Individual HCV RNA maximum change from baseline: 3.4 log10 IU/mL and 3.7 log10 IU/mL and 3.9 log10 IU/mL and 4.2 log10 IU/mL (2×) and 4.5 log10 IU/mL
GT1b HCV [3]; Part C, 300 mg/day
  Mean ± SD HCV RNA change from baseline to 24 h: 1.9 ± 0.2 log10 IU/mL
GT1b HCV [3]; Part C, 600 mg/day QD 7 days
  Individual HCV RNA maximum change from baseline: 4.3 log10 IU/mL and 5.2 log10 IU/mL and 5.3 log10 IU/mL and 3.5 log10 IU/mL and 4.0 log10 IU/mL and 4.1 log10 IU/mL
GT1b HCV [3]; [5]
  Mean ± SD HCV RNA maximum change from baseline: 4.4 ± 0.7 log10 IU/mL
  Individual HCV RNA maximum change from baseline: 3.5 log10 IU/mL and 4.0 log10 IU/mL and 4.1 log10 IU/mL and 4.3 log10 IU/mL and 5.2 log10 IU/mL and 5.3 log10 IU/mL
GT1b HCV [3]; Part C, 600 mg/day
  Mean ± SD HCV RNA change from baseline to 24 h: 2.1 log10 IU/mL
GT1b HCV [3]; Part C, 600 mg/day, listed as Compd 2
  Mean ± SD HCV RNA change from baseline to 24 h: 2.1 ± 0.2 log10 IU/mL
GT3 HCV; GT3 non-cirrhotic, 600 mg QD 7 days, n=6
  HCV RNA < LOQ (15 IU/mL), subjects: one subject achieved HCV RNA <LOQ within four days and 1/6
GT3 HCV
  Individual HCV RNA maximum change from baseline: 4.2 log10 IU/mL and 4.4 log10 IU/mL and 4.5 log10 IU/mL (2×) and 5.0 log10 IU/mL
  Mean ± SD HCV RNA maximum change from baseline: 4.5 log10 IU/mL
  Mean ± SD HCV RNA change from baseline to 24 h: 2.4 log10 IU/mL
GT3 HCV; listed as Compd 2
  Mean ± SD HCV RNA maximum change from baseline: 4.5 ± 0.3 log10 IU/mL
  Individual HCV RNA maximum change from baseline: 4.2 log10 IU/mL and 4.4 log10 IU/mL (2×) and 4.5 log10 IU/mL (2×) and 5.0 log10 IU/mL
  Mean ± SD HCV RNA change from baseline to 24 h: 2.3 ± 0.3 log10 IU/mL
HCV GT1, GT2, GT3; 600 mg QD, steady state, regardless of genotype or cirrhosis status
  reductions in plasma HCV RNA: −4.5 log10 IU/mL
HCV GT1, GT2, GT3; after the first 600 mg dose
  plasma HCV RNA decrease within the first 24 h of dosing: up to 2.4 log10 IU/mL
HCV GT1, GT2, GT3; cohorts receiving 600 mg QD, seven days of therapy
  subjects achieving HCV RNA below the lower limit of quantitation: ~30%
GT1b HCV [4]; 600 mg Compound 2 (equivalent of 550 mg Compound 1)
  Individual Max Reduction of HCV RNA: 2.1 log10 IU/ml and 2.3 log10 IU/ml and 2.6 log10 IU/ml
GT1b HCV [4]; 600 mg Compound 2 (equivalent of 550 mg Compound 1), n=3
  Mean Max Reduction of HCV RNA: 2.3 log10 IU/ml
GT1b HCV [4]; Compound 2 equivalent of 92 mg Compound 1
  Individual Max Reduction of HCV RNA: 0.6 log10 IU/ml and 0.8 log10 IU/ml and 0.9 log10 IU/ml
GT1b HCV [4]; Compound 2 equivalent of 92 mg Compound 1, n=3
  Mean Max Reduction of HCV RNA: 0.8 log10 IU/ml
GT1b HCV [4]; Compound 2 equivalent of 275 mg Compound 1
  Individual Max Reduction of HCV RNA: 1.1 log10 IU/ml and 1.8 log10 IU/ml and 2.2 log10 IU/ml
GT1b HCV [4]; Compound 2 equivalent of 275 mg Compound 1, n=3
  Mean Max Reduction of HCV RNA: 1.7 log10 IU/ml
GT1b HCV [4]; Compound 2 equivalent of 368 mg Compound 1
  Individual Max Reduction of HCV RNA: 1.8 log10 IU/ml and 2.2 log10 IU/ml and 2.6 log10 IU/ml
GT1b HCV [4]; Compound 2 equivalent of 368 mg Compound 1, n=3
  Mean Max Reduction of HCV RNA: 2.2 log10 IU/ml
GT1, GT2, or GT3 HCV; 600 mg/day QD 7 days, Part E vs Parts C and D
  antiviral activity / HCV RNA change in cirrhotic compared with non-cirrhotic subjects: similar
GT1, GT2, or GT3 HCV; [6]
  HCV RNA < LOQ (15 IU/mL), subjects: 1/3
  Mean Max Reduction: 4.2 log10 IU/mL
GT1, GT2, or GT3 HCV; GT1, Child-Pugh A, n=3
  Mean Reduction After 24 hours: 2.4 log10 IU/mL
GT1, GT2, or GT3 HCV; GT1, GT2, and GT3
  activity against HCV genotypes in cirrhotic patients: active
GT1, GT2, or GT3 HCV; [7]
  HCV RNA < LOQ (15 IU/mL), subjects: 0/1
  Mean (Individual) Max Reduction: 4.8 log10 IU/mL
GT1, GT2, or GT3 HCV; GT3, Child-Pugh A, n=1
  Mean Reduction After 24 hours: 2.2 log10 IU/mL
GT1, GT2, or GT3 HCV
  Mean ± SD HCV RNA maximum change from baseline: 4.6 log10 IU/mL and 4.5 log10 IU/mL
  Mean ± SD HCV RNA change from baseline to 24 h: 2.4 log10 IU/mL
GT1, GT2, or GT3 HCV; listed as Compd 2
  Mean ± SD HCV RNA maximum change from baseline: 4.6 ± 0.5 log10 IU/mL
  Mean ± SD HCV RNA change from baseline to 24 h: 2.4 ± 0.2 log10 IU/mL
GT1, GT2, or GT3 HCV; cirrhotic GT1b, 600 mg/day QD 7 days
  Individual HCV RNA maximum change from baseline: 4.0 log10 IU/mL and 4.1 log10 IU/mL and 4.5 log10 IU/mL
GT1, GT2, or GT3 HCV; cirrhotic GT1b, 600 mg/day QD 7 days, listed as Compd 2
  Individual HCV RNA maximum change from baseline: GT1b: 4.0, log10 IU/mL and 4.1 log10 IU/mL and 4.5 log10 IU/mL
GT1, GT2, or GT3 HCV; cirrhotic GT2, 600 mg/day QD 7 days
  Individual HCV RNA maximum change from baseline: GT2: 4.8 log10 IU/mL
GT1, GT2, or GT3 HCV; cirrhotic GT3, 600 mg/day QD 7 days, listed as Compd 2
  Individual HCV RNA maximum change from baseline: 5.1 log10 IU/mL and 5.2 log10 IU/mL
